Data: DBAASP
≈ marks a conversion by molar mass, not a printed value. Where “and” joins values, the source holds several entries; their conditions need not be identical. Equal entries are not always repeated.

Tests used:
Experiment in all cases: ≥ marks a high value that may be exact or a test limit, other limits are often not marked, values filed in µg/mL are converted to µM
[1] = system: Escherichia coli ATCC 8739
[2] = system: Pseudomonas aeruginosa ATCC 9027
[3] = system: Staphylococcus aureus ATCC 6538
[4] = system: Bacillus subtilis ATCC 6633
[5] = system: Escherichia coli ATCC 25922
[6] = system: Klebsiella pneumoniae ATCC 10031
[7] = system: Micrococcus luteus ATCC 10240
[8] = system: Pseudomonas aeruginosa ATCC 27853
[9] = system: Salmonella enterica subsp. enterica serovar Typhimurium ATCC 14028
[10] = system: Shigella dysenteriae ATCC 9752
[11] = system: Staphylococcus aureus ATCC 6538P
[12] = system: Staphylococcus epidermidis ATCC 12228
[13] = system: Pseudomonas aeruginosa Ps4
[14] = system: Bacillus anthracis Sterne 34F2
[15] = system: Bacillus subtilis var. niger ATCC 9372
Escherichia coli K91BK = system: Escherichia coli K91BK
Escherichia coli = system: Escherichia coli
[16] = system: Salmonella enterica subsp. enterica serovar Enteritidis
Salmonella sp. = system: Salmonella sp.
[17] = system: Staphylococcus aureus ATCC 29213
[18] = system: Staphylococcus aureus ATCC 43300
Yersinia enterocolitica = system: Yersinia enterocolitica
[19] = system: Staphylococcus aureus ATCC 25923

Row | SMILES | MIC [5] [µM] | MIC (Escherichia coli) [µM] | MIC [16] [µM] | MIC (Salmonella sp.) [µM] | MIC [17] [µM] | MIC [18] [µM] | MIC (Yersinia enterocolitica) [µM] | also measured
1 | NCCCC[C@H](NC(=O)[C@H](Cc1c[nH]c2ccccc12)NC(=O)[C@H](Cc1ccccc1)NC(=O)[C@H](Cc1c[nH]c2ccccc12)NC(=O)[C@@H](N)CS)C(=O)N[C@@H](Cc1c[nH]c2ccccc12)C(=O)N[C@@H](Cc1c[nH]c2ccccc12)C(=O)N[C@@H](CCCN=C(N)N)C(=O)N[C@@H](CCCN=C(N)N)C(=O)N[C@@H](CCCN=C(N)N)C(=O)N[C@@H](CCCN=C(N)N)C(=O)N[C@@H](CCCN=C(N)N)C(N)=O [CWFWKWWRRRRR] | – | – | – | – | – | – | – | MIC [1]: 5.2 µM and 7.3 µM; MIC [2]: 5.5 µM and 8.7 µM; MIC [3]: 2.5 µM and 4.7 µM
2 | CC[C@H](C)[C@H](NC(=O)[C@H](CC(N)=O)NC(=O)[C@H](CCCN=C(N)N)NC(=O)[C@@H]1CCCN1C(=O)[C@H](Cc1c[nH]c2ccccc12)NC(=O)[C@@H](N)Cc1ccccc1)C(=O)N[C@@H](CCCN=C(N)N)C(=O)N[C@@H](CCCCN)C(=O)N[C@H](C(=O)N[C@@H](CCCN=C(N)N)C(N)=O)C(C)C [FWPRNIRKVR] | – | – | – | – | – | – | – | MIC [13]: ≥ 182 µM
3 | CC[C@H](C)[C@H](NC(=O)[C@H](CC(N)=O)NC(=O)[C@H](CCCN=C(N)N)NC(=O)[C@H](CCC(N)=O)NC(=O)[C@H](Cc1c[nH]c2ccccc12)NC(=O)[C@@H](N)Cc1ccccc1)C(=O)N[C@@H](CCCN=C(N)N)C(=O)N[C@@H](Cc1ccccc1)C(=O)N[C@@H](CCCN=C(N)N)C(=O)N[C@@H](CCCN=C(N)N)C(N)=O [FWQRNIRFRR] | – | – | – | – | – | – | – | MIC [13]: ≥ 250 µM
4 | CC[C@H](C)[C@H](NC(=O)[C@H](C)NC(=O)[C@H](CCCCN)NC(=O)[C@H](CCCN=C(N)N)NC(=O)CNC(=O)[C@H](Cc1ccccc1)NC(=O)[C@H](CCCCN)NC(=O)[C@H](CCCCN)NC(=O)[C@@H](NC(=O)[C@H](CC(C)C)NC(=O)[C@H](CCCCN)NC(=O)CNC(=O)[C@H](Cc1ccccc1)NC(=O)[C@H](CC(C)C)NC(=O)CNC(C)=O)[C@@H](C)CC)C(=O)N[C@@H](CO)C(=O)N[C@@H](Cc1ccc(O)cc1)C(=O)N[C@@H](C)C(=O)N[C@H](C(=O)N[C@@H](CCCCN)C(=O)N[C@@H](CCCCN)C(=O)N[C@@H](C)C(=O)N[C@@H](CCCN=C(N)N)C(=O)NCC(=O)N[C@@H](CCCCN)C(=O)N[C@@H](Cc1cnc[nH]1)C(N)=O)C(C)C [GLFGKLIKKFGRKAISYAVKKARGKH] | – | – | – | – | – | – | – | MIC [14]: 6.25 µM (≈ 18.4 µg/mL); MIC [15]: 2.37 µM (≈ 6.98 µg/mL); MIC (Escherichia coli K91BK): ≥ 100 µM
5 | CC(C)C[C@H](NC(=O)[C@H](CC(C)C)NC(=O)[C@H](Cc1c[nH]c2ccccc12)NC(=O)[C@H](CCCCN)NC(=O)[C@H](CC(C)C)NC(=O)[C@H](CC(C)C)NC(=O)[C@@H](N)CCCCN)C(=O)N[C@@H](CCCCN)C(N)=O [KLLKWLLK] | 96 (≈ 99.9 µg/mL) | – | – | – | – | – | – | MIC [4]: ≥ 48 µM; MIC [6]: ≥ 96 µM; MIC [7]: ≥ 96 µM; MIC [8]: 96 µM (≈ 99.9 µg/mL); MIC [9]: > 192 µM; MIC [10]: ≥ 192 µM; MIC [11]: 24 µM (≈ 25 µg/mL); MIC [12]: 192 µM (≈ 200 µg/mL)
6 | CSCC[C@H](NC(=O)[C@H](CCCN=C(N)N)NC(=O)[C@H](CCCN=C(N)N)NC(=O)[C@@H](N)CC(N)=O)C(=O)N[C@@H](CCCCN)C(=O)N[C@@H](Cc1c[nH]c2ccccc12)C(=O)N[C@@H](CCCCN)C(=O)N[C@@H](CCCCN)C(N)=O [NRRMKWKK] | > 50 | > 50 | ≥ 50 | ≥ 50 | > 50 | > 50 | ≥ 50 | MIC [8]: > 50 µM
7 | CC[C@H](C)[C@H](NC(=O)[C@H](CCCCN)NC(=O)[C@H](CCCN=C(N)N)NC(=O)[C@H](CC(C)C)NC(=O)[C@@H](NC(=O)[C@H](CCCCN)NC(=O)CNC(=O)[C@H](CC(C)C)NC(=O)[C@@H](NC(=O)[C@H](CCCCN)NC(=O)[C@H](CC(N)=O)NC(=O)[C@H](CCCN=C(N)N)NC(=O)[C@H](C)NC(=O)[C@H](CCSC)NC(=O)[C@@H]1CCCN1)[C@@H](C)CC)[C@@H](C)CC)C(=O)N[C@@H](C)C(=O)N[C@@H](C)C(=O)N[C@@H](Cc1ccccc1)C(=O)N[C@@H](CCCCN)C(=O)O [PMARNKILGKILRKIAAFK] | – | – | – | – | – | – | – | MIC [1]: 3.69 µM (≈ 8 µg/mL); MIC [19]: 29.5 µM (≈ 64 µg/mL)
8 | CC[C@H](C)[C@H](NC(=O)[C@H](CCCN=C(N)N)NC(=O)[C@@H](NC(=O)[C@H](CC(N)=O)NC(=O)[C@H](CCCN=C(N)N)NC(=O)[C@H](CCC(N)=O)NC(=O)[C@H](Cc1c[nH]c2ccccc12)NC(=O)[C@H](Cc1ccccc1)NC(=O)[C@@H](N)CCCN=C(N)N)[C@@H](C)CC)C(=O)N[C@@H](CCCN=C(N)N)C(=O)N[C@@H](CCCN=C(N)N)C(N)=O [RFWQRNIRIRR] | – | – | – | – | – | – | – | MIC [13]: ≥ 156 µM
9 | CC[C@H](C)[C@H](NC(=O)[C@H](CC(N)=O)NC(=O)[C@H](CCCN=C(N)N)NC(=O)[C@H](CCC(N)=O)NC(=O)[C@H](Cc1c[nH]c2ccccc12)NC(=O)[C@H](Cc1ccccc1)NC(=O)[C@@H](N)CCCN=C(N)N)C(=O)N[C@@H](CCCN=C(N)N)C(=O)N[C@@H](CCCCN)C(=O)N[C@@H](Cc1ccc(O)cc1)C(=O)N[C@@H](CCCN=C(N)N)C(N)=O [RFWQRNIRKYR] | – | – | – | – | – | – | – | MIC [13]: ≥ 154 µM
10 | CC[C@H](C)[C@H](NC(=O)[C@H](CCC(N)=O)NC(=O)[C@@H](N)CCCN=C(N)N)C(=O)N[C@H](C(=O)N[C@@H](CCCN=C(N)N)C(=O)N[C@@H](CCCN=C(N)N)C(=O)N[C@@H](CCSC)C(=O)N[C@@H](Cc1c[nH]c2ccccc12)C(=O)N[C@@H](CCCN=C(N)N)C(N)=O)[C@@H](C)CC [RQIIRRMWR] | > 38 | 19 (≈ 25 µg/mL) | ≥ 38 | ≥ 38 | > 38 | > 38 | ≥ 38 | –
11 | CC[C@H](C)[C@H](NC(=O)[C@H](CCCCN)NC(=O)[C@@H](NC(=O)[C@H](CCC(N)=O)NC(=O)[C@@H](N)CCCN=C(N)N)[C@@H](C)CC)C(=O)N[C@@H](CCCN=C(N)N)C(=O)N[C@@H](CCCN=C(N)N)C(=O)N[C@@H](CCSC)C(=O)N[C@@H](CCCCN)C(=O)N[C@@H](Cc1c[nH]c2ccccc12)C(=O)N[C@@H](CCCN=C(N)N)C(N)=O [RQIKIRRMKWR] | 7.96 (≈ 12.5 µg/mL) | 3.56 (≈ 5.59 µg/mL) | 31.8 (≈ 50 µg/mL) | 3.18 (≈ 5 µg/mL) | > 31.8 | 31.8 (≈ 50 µg/mL) | 3.98 (≈ 6.25 µg/mL) | –

Continued, in another order:

Row | MIC [5] [µM] | MIC (Escherichia coli) [µM] | MIC [16] [µM] | MIC (Salmonella sp.) [µM] | MIC [17] [µM] | MIC [18] [µM] | MIC (Yersinia enterocolitica) [µM] | SMILES | also measured
12 | 8.36 (≈ 12.5 µg/mL) | – | – | – | – | – | – | CC(C)C[C@H](NC(=O)[C@H](Cc1c[nH]c2ccccc12)NC(=O)[C@H](CCCCN)NC(=O)[C@H](CC(C)C)NC(=O)[C@@H](N)Cc1ccccc1)C(=O)N[C@@H](Cc1ccccc1)C(=O)N[C@@H](CCCCN)C(=O)N[C@@H](Cc1c[nH]c2ccccc12)C(=O)N[C@@H](C)C(=O)N[C@@H](CCCCN)C(=O)N[C@@H](CCCCN)C(N)=O [FLKWLFKWAKK] | MIC [4]: 2.07 µM (≈ 3.1 µg/mL); MIC [6]: 8.36 µM (≈ 12.5 µg/mL); MIC [7]: 2.07 µM (≈ 3.1 µg/mL); MIC [8]: 8.36 µM (≈ 12.5 µg/mL); MIC [9]: 33.4 µM (≈ 50 µg/mL); MIC [10]: 16.7 µM (≈ 25 µg/mL); MIC [11]: 4.21 µM (≈ 6.3 µg/mL); MIC [12]: 4.21 µM (≈ 6.3 µg/mL)
13 | 4.33 (≈ 6.25 µg/mL) | 4.33 (≈ 6.25 µg/mL) | 8.65 (≈ 12.5 µg/mL) | 4.33 (≈ 6.25 µg/mL) | 34.6 (≈ 50 µg/mL) | > 34.6 | 17.3 (≈ 25 µg/mL) | CC[C@H](C)[C@H](NC(=O)[C@H](CCC(N)=O)NC(=O)[C@@H](N)CCCN=C(N)N)C(=O)N[C@@H](Cc1c[nH]c2ccccc12)C(=O)N[C@@H](Cc1c[nH]c2ccccc12)C(=O)N[C@@H](Cc1c[nH]c2ccccc12)C(=O)N[C@@H](Cc1c[nH]c2ccccc12)C(=O)N[C@@H](CCC(N)=O)C(=O)N[C@@H](CCCN=C(N)N)C(N)=O [RQIWWWWQR] | –
14 | > 31.8 | > 31.8 | 31.8 (≈ 50 µg/mL) | 31.8 (≈ 50 µg/mL) | > 31.8 | > 31.8 | 31.8 (≈ 50 µg/mL) | CC[C@H](C)[C@H](NC(=O)[C@H](CCCCN)NC(=O)[C@@H](NC(=O)[C@H](CCCN=C(N)N)NC(=O)[C@H](CCCN=C(N)N)NC(=O)[C@H](CCSC)NC(=O)[C@H](CCCCN)NC(=O)[C@H](Cc1c[nH]c2ccccc12)NC(=O)[C@@H](N)CCCN=C(N)N)[C@@H](C)CC)C(=O)N[C@@H](CCC(N)=O)C(=O)N[C@@H](CCCN=C(N)N)C(N)=O [RWKMRRIKIQR] | –
